# Data as given in PubChem BioAssay AID1919006 (Molecular Pharmacology Branch, DTP, NCI, 2023).
# Several values for one entry are separate records, joined by “and”; a condition that tells them apart may be missing. Equal entries are not always repeated.
# Tested on: 885512-296-R-J2-PDC complex spheroid growth, % test/control
# Assay: Anticancer human tumor 885512-296-R-J2-PDC patient-derived breast carcinoma cell line growth inhibition [AhR]
# Settings: for viability, T/C: stronger effect = lower value
# From the text: Multicellular complex tumor spheroid response to aryl hydrocarbon receptor antagonists in combination with a variety of drugs and investigational agents in selected tumor cell lines
# The current study was undertaken to assess response to aryl hydrocarbon receptor antagonists in combination with standard-of-care drugs and investigational agents in solid tumor complex spheroid models. Complex spheroids include a stromal component modeled by human endothelial cells (HUVEC) and fibroblasts modeled by human mesenchymal stem cells (MSCs). The concentration ranges selected for each drug and investigational agent were based upon clinically achievable concentrations if the clinical Cmax of the agent was known.
# Compounds. The drugs and investigational agents: BAY 2416964 (NSC825713), GNF351 (NSC835774), CH-223191 (NSC835775), CPI-455 (NSC825282), aza-TdCyd (NSC777586), decitabine (NSC127716), belinostat (NSC758774), entinostat (NSC756642), pevonedistat (NSC761192), tazemetostat (NSC777109), talazoparib (NSC765396), olaparib (NSC753686), selinexor (NSC780203), nedisertib (M3814, NSC802822), bortezomib (NSC756655), venetoclax (NSC766270), doxorubicin (NSC123127), elimusertib (BAY189344, NSC800525), ceralasertib (AZD6738, NSC777638), TAK-243 (NSC785004), alisertib (NSC759677), etoposide (NSC141540), topotecan (NSC609699), eribulin (NSC707389), gemcitabine (NSC613327), carboplatin (NSC241240), cisplatin (NSC119875), and SN-38 (NSC673596) were obtained from the National Cancer Institute (NCI) Developmental Therapeutics Program Chemical Repository (32). The FDA-approved anticancer drug set is available from the Developmental Therapeutics Program at https://dtp.cancer.gov/organization/dscb/obtaining/available plates.htm. […] The stock solutions were prepared in dimethyl sulfoxide (DMSO, Sigma-Aldrich, St. Louis, MO, cat. D2650), except for the platinum compounds which were prepared in saline (Quality Biological, Gaithersburg, MD, cat. 114-055-101), at 800-fold the tested concentration and stored at -70 degrees C prior to their use. All drugs and investigational agents were tested over a range starting from a high concentration at or near the clinical Cmax and decreasing in half-log increments. If the clinical Cmax for an agent had not been determined, the highest concentration tested was 10 microM (Table 1).
# Cell Culture. All cells were maintained in an incubator at 37 degrees C and 5% CO2 with 95% humidity. The PDC lines were cultured according to standard operating procedures established by the NCI PDMR (https://pdmr.cancer.gov). Briefly, all PDCs were thawed and cultured in Matrigel-coated flasks prepared with a working solution of 1X Ham's F-12 nutrient mix, without supplementation (Invitrogen, Waltham, MA, cat. 11765054), 100 U/mL penicillin-streptomycin (Invitrogen, cat. 15140122), and 2.5% Matrigel (Corning Inc., Corning, NY, cat. 354248) for the first three passages. All PDCs were cultured in complete DMEM/F-12 media containing advanced DMEM/F-12 (Invitrogen, cat. 12634028), 4.9% defined fetal bovine serum, heat inactivated (HyClone Laboratories Inc., Logan, UT, cat. SH30070.03HI), 389 ng/mL hydrocortisone (Sigma-Aldrich, cat. H4001), 9.7 ng/mL human EGF recombinant protein (Invitrogen, cat. PHG0313), 23.4 microg/mL adenine (Sigma-Aldrich, cat. A2786), 97.3 U/mL penicillin-streptomycin (Invitrogen, cat. 15140122), 1.9 mM L-glutamine (Invitrogen, cat. 25030081), and 9.7 microM Y-27632 dihydrochloride (Tocris Bioscience, Bristol, United Kingdom, cat. 1254). The PDCs were cultured in complete DMEM/F12 media without 10 microM Y-27632 dihydrochloride for at least two passages prior to the screen. The established cell lines NCI-H1341 and […] were cultured in DMEM/F-12, HEPES (Invitrogen, cat. 11330032), 5% defined fetal bovine serum (HyClone Laboratories Inc., cat. SH30070.03), ITS premix universal culture supplement [insulin (5 microg/mL), transferrin (5 microg/mL), and selenious acid (5 ng/mL)] […]
# [1] = curve of first compound, second compound 0.1 µM
# [2] = curve of first compound, second compound 0.316 µM
# [3] = curve of first compound, second compound 1 µM
# [4] = curve of first compound, second compound 3.16 µM
# [5] = curve of first compound, second compound 10 µM
# [6] = second compound 0.1 µM, first compound 0.0316 µM
# [7] = second compound 0.1 µM, first compound 0.1 µM
# [8] = second compound 0.316 µM, first compound 0.0316 µM
# [9] = second compound 0.316 µM, first compound 0.1 µM
# [10] = second compound 1 µM, first compound 0.0316 µM
# [11] = second compound 1 µM, first compound 0.1 µM
# [12] = second compound 3.16 µM, first compound 0.0316 µM
# [13] = second compound 3.16 µM, first compound 0.1 µM
# [14] = second compound 10 µM, first compound 0.0316 µM
# [15] = second compound 10 µM, first compound 0.1 µM
# 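Further: spheroids exposed to compounds for seven days.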
structure (smiles),measurement,setting,value
CC1COCCN1c1cc(C2(S(C)(=N)=O)CC2)nc(-c2ccnc3[nH]ccc23)n1 (configuration not stated) + Cc1cncc(-c2nc(NCCc3c[nH]c4ccccc34)c3ncn(C(C)C)c3n2)c1,IC50,[1],2280 nM
same,IC50,[2],1950 nM
same,IC50,[3],1510 nM
same,IC50,[4],282 nM
same,IC50,[5],< 31.6 nM
same,"viability, T/C",[6],99.8%
same,"viability, T/C",[7],102%
same,"viability, T/C","second compound 0.1 µM, first compound 0.316 µM",103%
same,"viability, T/C","second compound 0.1 µM, first compound 1 µM",95%
same,"viability, T/C","second compound 0.1 µM, first compound 3.16 µM",32.3%
same,"viability, T/C","second compound 0.1 µM, first compound 10 µM",4.89%
same,"viability, T/C",[8],99.2%
same,"viability, T/C",[9],99.5%
same,"viability, T/C","second compound 0.316 µM, first compound 0.316 µM",97.3%
same,"viability, T/C","second compound 0.316 µM, first compound 1 µM",81.9%
same,"viability, T/C","second compound 0.316 µM, first compound 3.16 µM",26.9%
same,"viability, T/C","second compound 0.316 µM, first compound 10 µM",6.7%
same,"viability, T/C",[10],86.4%
same,"viability, T/C",[11],86.1%
same,"viability, T/C","second compound 1 µM, first compound 0.316 µM",82.9%
same,"viability, T/C","second compound 1 µM, first compound 1 µM",64.7%
same,"viability, T/C","second compound 1 µM, first compound 3.16 µM",23.6%
same,"viability, T/C","second compound 1 µM, first compound 10 µM",4.77%
same,"viability, T/C",[12],65%
same,"viability, T/C",[13],55.3%
same,"viability, T/C","second compound 3.16 µM, first compound 0.316 µM",47.7%
same,"viability, T/C","second compound 3.16 µM, first compound 1 µM",42.4%
same,"viability, T/C","second compound 3.16 µM, first compound 3.16 µM",20.4%
same,"viability, T/C","second compound 3.16 µM, first compound 10 µM",6.04%
same,"viability, T/C",[14],22.3%
same,"viability, T/C",[15],22.7%
same,"viability, T/C","second compound 10 µM, first compound 0.316 µM",19.9%
same,"viability, T/C","second compound 10 µM, first compound 1 µM",18.2%
same,"viability, T/C","second compound 10 µM, first compound 3.16 µM",12.5%
same,"viability, T/C","second compound 10 µM, first compound 10 µM",5%
CC[C@@]1(O)C(=O)OCc2c1cc1n(c2=O)Cc2cc3c(CN(C)C)c(O)ccc3nc2-1 + Cc1ccccc1N=Nc1ccc(NC(=O)c2ccnn2C)c(C)c1,IC50,[1],5.02 nM
same,IC50,[2],5.48 nM
same,IC50,[3],5.01 nM
same,IC50,[4],4.59 nM
same,IC50,[5],2.08 nM
same,"viability, T/C","second compound 0.1 µM, first compound 0.000316 µM",109%
same,"viability, T/C","second compound 0.1 µM, first compound 0.001 µM",103%
same,"viability, T/C","second compound 0.1 µM, first compound 0.00316 µM",67.5%
same,"viability, T/C","second compound 0.1 µM, first compound 0.01 µM",23.7%
same,"viability, T/C",[6],8.84%
same,"viability, T/C",[7],6.78%
same,"viability, T/C","second compound 0.316 µM, first compound 0.000316 µM",113%
same,"viability, T/C","second compound 0.316 µM, first compound 0.001 µM",113%
same,"viability, T/C","second compound 0.316 µM, first compound 0.00316 µM",74.7%
same,"viability, T/C","second compound 0.316 µM, first compound 0.01 µM",23%
same,"viability, T/C",[8],8.71%
same,"viability, T/C",[9],7.03%
same,"viability, T/C","second compound 1 µM, first compound 0.000316 µM",117%
same,"viability, T/C","second compound 1 µM, first compound 0.001 µM",111%
same,"viability, T/C","second compound 1 µM, first compound 0.00316 µM",70.7%
same,"viability, T/C","second compound 1 µM, first compound 0.01 µM",18.9%
same,"viability, T/C",[10],8.48%
same,"viability, T/C",[11],8.35%
same,"viability, T/C","second compound 3.16 µM, first compound 0.000316 µM",107%
same,"viability, T/C","second compound 3.16 µM, first compound 0.001 µM",95.4%
same,"viability, T/C","second compound 3.16 µM, first compound 0.00316 µM",61.1%
same,"viability, T/C","second compound 3.16 µM, first compound 0.01 µM",26.5%
same,"viability, T/C",[12],9.81%
same,"viability, T/C",[13],7.76%
same,"viability, T/C","second compound 10 µM, first compound 0.000316 µM",54.6%
same,"viability, T/C","second compound 10 µM, first compound 0.001 µM",57.7%
same,"viability, T/C","second compound 10 µM, first compound 0.00316 µM",46.3%
same,"viability, T/C","second compound 10 µM, first compound 0.01 µM",21.4%
same,"viability, T/C",[14],9.21%
same,"viability, T/C",[15],7.45%
O=C(c1cc(Cc2n[nH]c(=O)c3ccccc23)ccc1F)N1CCN(C(=O)C2CC2)CC1,"viability, T/C",compound 0.0316 µM,101% and 131% and 106%
same,"viability, T/C",compound 0.1 µM,109% and 125% and 105%
same,"viability, T/C",compound 0.316 µM,133% and 134% and 148%
same,"viability, T/C",compound 1 µM,141% and 121% and 151%
same,"viability, T/C",compound 3.16 µM,113% and 81.3% and 93.8%
same,"viability, T/C",compound 10 µM,34.5% and 20.2% and 30.2%
same,IC50,curve of compound,8010 nM and 5700 nM and 6980 nM
